Consider 14 compounds from US20100273770A1, “1, 2, 4 -OXADIAZOLE COMPOUNDS FOR THE TREATMENT OF AUTOIMMUNE DISEASES” (priority 2007, published 2010).

Where a name gives a salt, the structure may show the parent alone.

Data set [1] has as its target T1, human S1P3 receptor (Homo sapiens, UniProt Q99500).
T1 construct: expressed in transfected cells; membranes
Put plainly: S1P3 GTPγS assay. It is filed as biochemical. The note with it: [35S]-GTPγS binding, S1P3 RBL-2H3 membranes, agonist; read-out: pEC50 (S1P3 GTPγS assay) (converted). The method, then:
(§1) For membrane preparations all steps were performed at 4° C. Rat hepatoma cells stably expressing the human S1P1 receptor or Rat Basophilic Leukaemia cells (RBL) stably expressing human S1P3 receptor were grown to 80% confluency before being harvested into 10 ml Phospho-Buffered Saline (PBS) and centrifuged at 1200 rpm for 5 minutes. After removal of the supernatant, the pellet was re-suspended and cells were homogenised within a glass Waring blender for 2 bursts of 15 secs in 200 mls of buffer (50 mM HEPES, 1 mM leupeptin, 25 μg/ml bacitracin, 1 mM EDTA, 1 mM PMSF, 2 μM pepstatin A). The blender was plunged into ice for 5 mins after the first burst and 10-40 mins after the final burst to allow foam to dissipate. The material was then spun at 500 g for 20 mins and the supernatant spun for 36 mins at 48,000 g. The pellet was resuspended in the same buffer as above but without PMSF and pepstatin A. The material was then forced through a 0.6 mm needle, made up to the required volume, (usually ×4 the volume of the original cell pellet), aliquoted and stored frozen at −80° C.
S1P3 membranes from rat basophilic leukaemia cells (RBL-2H3)(1.5 μg/well) were adhered to WGA-coated SPA beads (0.125 mg/well) in assay buffer (HEPES 20 mM, MgCl2 3 mM, NaCl 100 mM and pH adjusted to 7.4 using KOH 5M), GDP 10 μM FAC and saponin 90 μg/ml FAC was also added).
After 30 minutes pre-coupling on ice the bead and membrane suspension was dispensed into a white Greiner polypropylene LV384-well plate (5 μl/well), containing 0.1 μl of the compound. 5 μl/well [^35S]-GTPγS (0.5 nM final radioligand conc) made up in assay buffer was then added to agonist plates. The final assay cocktail (10.1 μl) was centrifuged at 1000 rpm for 5 minutes then read immediately on a Viewlux reader.
(§2) All test compounds were dissolved in DMSO at a concentration of 10 mM and were prepared in 100% DMSO using a 1 in 4 dilution step to provide 11 point dose response curves. The dilutions were transferred to the assay plates ensuring that the DMSO concentration was constant across the plate for all assays.
(§3) All data was normalized to the mean of 16 high and 16 low control wells on each plate. A four parameter curve fit was then applied.
S1P3 expressing RBL membranes (1.5 μg/well) were homogenised by passing through a 23G needle. These were then adhered to WGA-coated SPA beads (0.125 mg/well) in assay buffer (HEPES 20 mM, MgCl2 10 mM, NaCl 100 mM and pH adjusted to 7.4 using KOH 5M). GDP 10 μM FAC and saponin 90 μg/ml FAC were also added
(§4) After 30 minutes precoupling on ice, the bead and membrane suspension was dispensed into white Greiner polypropylene LV 384-well plates (5 μl/well), containing 0.1 μl of compound. 5 μl/well [^35S]-GTPγS (0.5 nM for S1P1 or 0.3 nM for S1P3 final radioligand concentration) made in assay buffer was then added to the plates. The final assay cocktail (10.1 μl) was then sealed, spun on a centrifuge, then read immediately on a Viewlux instrument.

For data set [2], the target named is T2, human S1P1 receptor (Homo sapiens, UniProt P21453).
T2 construct: expressed in transfected cells; membranes
T2 sequence (P21453 whole entry): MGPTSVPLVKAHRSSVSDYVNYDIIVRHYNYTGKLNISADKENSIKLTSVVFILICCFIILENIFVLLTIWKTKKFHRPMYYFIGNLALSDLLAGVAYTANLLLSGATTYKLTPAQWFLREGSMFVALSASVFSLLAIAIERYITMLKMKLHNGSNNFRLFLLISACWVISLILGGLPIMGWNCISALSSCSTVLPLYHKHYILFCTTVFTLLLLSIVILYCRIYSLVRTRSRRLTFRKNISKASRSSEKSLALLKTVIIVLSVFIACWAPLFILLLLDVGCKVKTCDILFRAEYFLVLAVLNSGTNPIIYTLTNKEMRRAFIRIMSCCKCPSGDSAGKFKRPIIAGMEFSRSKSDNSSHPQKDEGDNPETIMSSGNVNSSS
In words: S1P1 GTPγS assay. It is filed as biochemical. The note with it: [35S]-GTPγS binding, human S1P1 rat hepatoma (RH7777) membranes, agonist; read-out: pEC50 (S1P1 GTPγS assay) (converted). On the procedure: as §1
as §1, with “All” for “For membrane preparations all”, “Cells” for “Rat hepatoma cells stably expressing the human S1P1 receptor or Rat Basophilic Leukaemia cells (RBL) stably expressing human S1P3 receptor were grown to 80% confluency before being harvested into 10 ml Phospho-Buffered Saline (PBS) and centrifuged at 1200 rpm for 5 minutes. After removal of the supernatant, the pellet was re-suspended and cells”
Human S1P1 rat hepatoma membranes (1.5 μg/well) were adhered to a wheatgerm agglutinin (WGA)-coated scintillation proximity assay (SPA) beads (0.125 mg/well) in assay buffer (HEPES 20 mM, MgCl2 10 mM, NaCl 100 mM and pH adjusted to 7.4 using KOH 5M, GDP 10 μM FAC (final assay concentration) and saponin 90 μg/ml FAC was also added).
After 30 minutes pre-coupling on ice the bead and membrane suspension was dispensed into a white Greiner polypropylene LV384-well plate (5 μl/well), containing 0.1 μl of the compound. 5 μl/well [^35S]-GTPγS (0.5 nM final radioligand conc) made up in assay buffer was then added to agonist plates. The final assay cocktail (10.1 μl) was then centrifuged at 1000 rpm for 5 minutes then read immediately on a Viewlux reader.
as §2, §3
S1P1 expressing RH7777 membranes (1.5 μg/well) membranes (1.5 μg/well) were homogenised by passing through a 23G needle. These were then adhered to WGA-coated SPA beads (0.125 mg/well) in assay buffer (HEPES 20 mM, MgCl2 10 mM, NaCl 100 mM and pH adjusted to 7.4 using KOH 5M). GDP 10 μM FAC and saponin 90 μg/ml FAC were also added
as §4
(GTPγS is a poorly hydrolysed GTP analogue; its binding reports G protein activation.)

Data set [3] concerns circulating lymphocytes. Conditions: animals and man; cited from earlier work.
The conditions of data set [4]: clinical studies, first 24 hours of treatment; cited from earlier work.

T1 sequence (Q99500 whole entry): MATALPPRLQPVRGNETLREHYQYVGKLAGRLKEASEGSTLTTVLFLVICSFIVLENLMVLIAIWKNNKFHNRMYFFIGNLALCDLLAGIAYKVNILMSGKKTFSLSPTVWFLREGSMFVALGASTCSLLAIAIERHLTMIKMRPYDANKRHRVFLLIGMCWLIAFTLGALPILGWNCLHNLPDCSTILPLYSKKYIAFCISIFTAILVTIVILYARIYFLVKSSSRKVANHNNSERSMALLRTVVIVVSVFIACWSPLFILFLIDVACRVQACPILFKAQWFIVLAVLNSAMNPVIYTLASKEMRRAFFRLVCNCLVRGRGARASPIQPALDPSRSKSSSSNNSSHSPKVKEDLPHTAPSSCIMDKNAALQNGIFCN

Regarding `CC(C)Oc1ccc(-c2nc(-c3ccc4c(c3)CCCNC4CCC(N)=O)no2)cc1Cl` (centres unmarked) [Example 1, 3-[7-(5-{3-chloro-4-[(1-methylethyl)oxy]phenyl}-1,2,4-oxadiazol-3-yl)-2,3,4,5-tetrahydro-1H-2-benzazepin-1-yl]propanamide], the EC50 in data set [1] was over 10 µM.
The same measure, in the same setting: the result for `CC(C)Oc1ccc(-c2nc(-c3ccc4c(c3)CCCNC4CCC(=O)O)no2)cc1Cl` (centres unmarked) [Example 2, 3-[7-(5-{3-Chloro-4-[(1-methylethyl)oxy]phenyl}-1,2,4-oxadiazol-3-yl)-2,3,4,5-tetrahydro-1H-2-benzazepin-1-yl]propanoic acid hydrochloride] reads over 10 µM.
Regarding `CC(C)Oc1ccc(-c2nc(-c3ccc4c(c3)CCCNC4CCCO)no2)cc1Cl` (centres unmarked) [Example 3, 3-[7-(5-{3-Chloro-4-[(1-methylethyl)oxy]phenyl}-1,2,4-oxadiazol-3-yl)-2,3,4,5-tetrahydro-1H-2-benzazepin-1-yl]-1-propanol hydrochloride], the EC50 in data set [1] is over 10 µM.
In the case of `CC(C)Oc1ccc(-c2nc(-c3ccc4c(c3)CNC(C(=O)O)CO4)no2)cc1Cl` (centres unmarked) [Example 5, 7-(5-{3-Chloro-4-[(1-methylethyl)oxy]phenyl}-1,2,4-oxadiazol-3-yl)-2,3,4,5-tetrahydro-1,4-benzoxazepine-3-carboxylic acid hydrochloride], the EC50 in data set [2] was under 0.1 µM.
Still for that read-out and setting: the result for `CC(C)Oc1ccc(-c2nc(-c3ccc4c(c3)CNC(CCC(=O)O)CO4)no2)cc1Cl` (centres unmarked) [Example 6, 3-[7-(5-{3-Chloro-4-[(1-methylethyl)oxy]phenyl}-1,2,4-oxadiazol-3-yl)-2,3,4,5-tetrahydro-1,4-benzoxazepin-3-yl]propanoic acid hydrochloride] reads under 0.01 µM.
In the case of `CC(C)Oc1ccc(-c2nc(-c3cccc4c3OCCNC4CC(=O)O)no2)cc1Cl` (centres unmarked) [Example 7, [9-(5-{3-Chloro-4-[(1-methylethyl)oxy]phenyl}-1,2,4-oxadiazol-3-yl)-2,3,4,5-tetrahydro-1,4-benzoxazepin-5-yl]acetic acid hydrochloride], the results for the EC50 in data set [2] and in data set [1] were under 0.1 µM and over 10 µM, respectively.
Turning to `CC(C)Oc1ccc(-c2nc(-c3cccc4c3OCCNC4CC(=O)O)no2)cc1C#N` (centres unmarked) [Example 8, [9-(5-{3-cyano-4-[(1-methylethyl)oxy]phenyl}-1,2,4-oxadiazol-3-yl)-2,3,4,5-tetrahydro-1,4-benzoxazepin-5-yl]acetic acid], the EC50 in data set [1] is over 10 µM.
With `CC(C)Oc1ncc(-c2nc(-c3cccc4c3OCCNC4CC(=O)O)no2)cc1Cl` (centres unmarked) [Example 9, [9-(5-{5-Chloro-6-[(1-methylethyl)oxy]-3-pyridinyl}-1,2,4-oxadiazol-3-yl)-2,3,4,5-tetrahydro-1,4-benzoxazepin-5-yl]acetic acid], the values for the EC50 in data set [2] and in data set [1] were under 0.1 µM and over 10 µM, respectively.
The like results for `CC(C)Oc1ccc(-c2nc(-c3cccc4c3OCCNC4CCCC(=O)O)no2)cc1C#N` (centres unmarked) [Example 10, 4-[9-(5-{3-cyano-4-[(1-methylethyl)oxy]phenyl}-1,2,4-oxadiazol-3-yl)-2,3,4,5-tetrahydro-1,4-benzoxazepin-5-yl]butanoic acid hydrochloride salt] were, in that order, under 0.1 µM and over 10 µM.
For the compound `CC(C)Oc1ncc(-c2nc(-c3cccc4c3OCCNC4CCCC(=O)O)no2)cc1Cl` (centres unmarked) [Example 11, 4-[9-(5-{5-chloro-6-[(1-methylethyl)oxy]-3-pyridinyl}-1,2,4-oxadiazol-3-yl)-2,3,4,5-tetrahydro-1,4-benzoxazepin-5-yl]butanoic acid hydrochloride], the EC50 in data set [2] is under 0.1 µM.
With `CC(C)Oc1ccc(-c2nc(-c3cccc4c3OCCNC4CCCC(=O)O)no2)cc1Cl` (centres unmarked) [Example 12, 4-[9-(5-{3-chloro-4-[(1-methylethyl)oxy]phenyl}-1,2,4-oxadiazol-3-yl)-2,3,4,5-tetrahydro-1,4-benzoxazepin-5-yl]butanoic acid hydrochloride], the EC50 in data set [2] was under 0.01 µM; in data set [1], over 10 µM.
`CC(C)Oc1ccc(-c2nc(-c3cccc4c3OCCNC4CCC(=O)O)no2)cc1Cl` (centres unmarked) [Example 13, 3-[9-(5-{3-Chloro-4-[(1-methylethyl)oxy]phenyl}-1,2,4-oxadiazol-3-yl)-2,3,4,5-tetrahydro-1,4-benzoxazepin-5-yl]propanoic acid, formic acid salt]: the EC50 is under 0.01 µM in data set [2] and over 10 µM in data set [1].
As for `CC(C)Oc1ccc(-c2nc(-c3cccc4c3OCCNC4CCC(=O)O)no2)cc1C#N` (centres unmarked) [Example 14, 3-[9-(5-{3-cyano-4-[(1-methylethyl)oxy]phenyl}-1,2,4-oxadiazol-3-yl)-2,3,4,5-tetrahydro-1,4-benzoxazepin-5-yl]propanoic acid, formic acid salt], the EC50 in data set [2] was under 0.01 µM.
Take `CCCCCCCCc1ccc(CCC(N)(CO)CO)cc1` [FTY720]: in data set [3], the “effect on circulating lymphocytes” value is on record as “reduce circulating lymphocytes”. Besides, the bradycardia on treatment entry in data set [4] is recorded as “bradycardia in the first 24 hours of treatment”.
